Entries after “also recorded” stand apart in the source; their conditions may differ. Values belong to the molecule of their own block, whether it stands above or below them.
Key:
K-Ras G12E = target: T1, K-Ras G12E (Homo sapiens, UniProt P01116, G12E); experiment: Covalent modification of test protein after incubation with compound; assay type: binding; details: 24-h incubation with 100 μM compound at 23° C. at pH 7.5
T1 construct: human K-Ras (G12E, aa 1-169); 6xHis tag + TEV cleavage site (N, cleaved yes); made in house; host or cells: E. coli BL21(DE3)

[1] = target: T2, interaction between Raf-RBD and K-Ras(G12D) (Homo sapiens, UniProt P01116, G12D); experiment: Time-resolved fluorescence energy transfer assay, Raf-RBD and K-Ras(G12D); assay type: biochemical; details: dose-dependent
T2 construct: human K-Ras (G12D, aa 1-169); 6xHis tag + TEV cleavage site (N); made in house; host or cells: E. coli BL21(DE3) for K-Ras

wild type K-Ras [2] = target: T3, wild type K-Ras (Homo sapiens, UniProt P01116); experiment: Covalent modification of test protein after incubation with compound; assay type: binding; details: 24-h incubation with 100 μM compound at 23° C. at pH 7.5
T3 construct: human K-Ras (wildtype, aa 1-169); 6xHis tag + TEV cleavage site (N, cleaved yes); made in house; host or cells: E. coli BL21(DE3)

K-Ras G12D = target: T4, K-Ras G12D (Homo sapiens, UniProt P01116, G12D); experiment: as above; assay type: binding; details: 24-h incubation with 100 μM compound at 23° C. at pH 7.5
T4 construct: human K-Ras (G12D, aa 1-169); 6xHis tag + TEV cleavage site (N, cleaved yes); made in house; host or cells: E. coli BL21(DE3)

wild type K-Ras [3] = target: T3, wild type K-Ras; experiment: Covalent modification of recombinant wild-type K-Ras by whole-protein mass spectrometry; assay type: binding; details: 23° C.
Method: (§1) Test compounds were prepared as 100× stock solutions in DMSO. K-Ras proteins were diluted with SEC Buffer (20 mM HEPES 7.5, 150 mM NaCl, 1 mM MgCl2) to 400 nM or 1 μM. In a typical reaction, 0.5 μL 100× compound stock was mixed with 50 μL diluted K-Ras protein, and the resulting mixture was incubated for the desired amount of time. The extent of modification was assessed by electrospray mass spectrometry using a Waters Xevo G2-XS system equipped with an Acquity UPLC BEH C4 1.7 μm column. The mobile phase was a linear gradient of 5-95% acetonitrile/water+0.05% formic acid. For kinetic measurements, a 2× compound solution was first prepared in SEC Buffer, which was then mixed with 400 nM K-Ras(G12S) protein at 1:1 (v/v) ratio. Injection time stamps were used to calculate elapsed time.
as §1, with “K-Ras(G12D)” for “K-Ras(G12S)”

K-Ras(G12S) [4] = target: T5, K-Ras(G12S) (Homo sapiens, UniProt P01116, G12S); experiment: Sos- or EDTA-mediated nucleotide exchange assay (BODIPY-GDP); assay type: biochemical; design: human K-Ras (G12S, aa 1-169); 6xHis tag + TEV cleavage site (N, cleaved yes); made in house; host or cells: E. coli BL21(DE3) for K-Ras; details: K-Ras(G12S) adduct
Method: This assay was performed as previously reported (2-5) with slight modifications. BODIPY-GDP-loaded K-Ras proteins were prepared freshly as follows. To a 10 μM solution of K-Ras(wildtype)·GDP, K-Ras(G12S)·GDP, or K-Ras(G12S)·GDP·1′ in SEC Buffer (1 mL) was added sequentially BODIPY-GDP (5 mM, 40 μL, Thermo Fisher, final concentration 200 μM) and Na-EDTA pH 8.0 (0.5 M, 5 μL, final concentration 2.5 mM). The mixture was incubated at 23° C. for 1 h, and a solution of MgCl2 (1.0 M, 20 μL, […]) was added to the reaction mixture. The protein solution was run through a PD-10 column to remove the excess nucleotide following the manufacturer's protocol. Briefly, sample (˜1.0 mL) and excess buffer (1.5 mL) were loaded onto the column (equilibrated with NucEx Buffer), and desalted protein was eluted with NucEx Buffer (3.5 mL). Protein concentration was measured with Bradford assay and adjusted to 1.25 μM with NucEx Buffer. 12 μL of this solution (triplicate for each condition) was added to wells of a black 384-well low-volume assay plate (Corning 4514). […] The plate was immediately placed in a TECAN Spark 20M plate reader, and fluorescence for BODIPY (excitation 488 nm, emission 520 nm) was read every 30 s over 1 h. Fluorescence intensity was normalized to values at time 0 and plotted again time. […]

K-Ras(G12S)·GDP = target: T6, K-Ras(G12S)·GDP (Homo sapiens, UniProt P01116, G12S); experiment: Differential scanning fluorimetry of K-Ras(G12S)·GDP and its adduct; assay type: binding
T6 construct: human K-Ras (G12S, aa 1-169); 6xHis tag + TEV cleavage site (N, cleaved yes); made in house; host or cells: E. coli BL21(DE3)
Method: The protein of interest was diluted with SEC Buffer [20 mM HEPES 7.5, 150 mM NaCl, 1 mM MgCl2] to 8 μM. This solution was dispensed into wells of a white 96-well PCR plate in triplicate (25 μL/well). Fluorescence was measured at 0.5-° C. temperature intervals every 30 s from 25° C. to 95° C. on a Bio-Rad CFX96 qPCR system using the FRET setting. Each data set was normalized to the highest fluorescence and the normalized fluorescence reading was plotted against temperature in GraphPad Prism 8.0. Tm values were determined as the temperature(s) corresponding to the maximum(ma) of the first derivative of the curve.

K-Ras(G12S) [5] = target: T5, K-Ras(G12S); experiment: Covalent modification of recombinant K-Ras(G12S) by whole-protein mass spectrometry; assay type: binding; design: human K-Ras (G12S, aa 1-169); 6xHis tag + TEV cleavage site (N, cleaved yes); made in house; host or cells: E. coli BL21(DE3); details: for extent of modification of K-Ras(G12S)·GDP: 10 μM compound, 4 μM protein
Method: as §1, with “The mobile phase was a linear gradient of 5-95% acetonitrile/water+0.05% formic acid.” left out
as §1, with “The mobile phase was a linear gradient of 5-95% acetonitrile/water+0.05% formic acid.” left out, “K-Ras(G12D)” for “K-Ras(G12S)”

[6] = Stability of substituted β-lactones in PBS 7.4 at 23° C.; assay type: physicochemical; details: after 24 h, pH 7.4
BaF3/K-Ras(G12D) cells = experiment: Growth inhibition of BaF3/K-Ras(G12D) cells; assay type: cell-based, murine; details: Mus musculus, read-out: IC50, growth of BaF3/K-Ras(G12D) cells
Method: (§2) Cells were seeded into 96-well white flat bottom plates (1,000 cells/well) (Corning) and incubated overnight. Cells were treated with the indicated compounds in a nine-point threefold dilution series (100 μL final volume) and incubated for 72 h. Cell viability was assessed using a commercial CellTiter-Glo (CTG) luminescence-based assay (Promega). Briefly, the 96-well plates were equilibrated to room temperature before the addition of diluted CTG reagent […] (1:4 CTG reagent:PBS). Plates were placed on an orbital shaker for 30 min before recording luminescence using a Spark 20M (Tecan) plate reader.

[7] = system: parental Ba/F3 cells (with IL-3); experiment: Cell viability assay (CellTiter-Glo), parental Ba/F3 cells; assay type: cell-based, murine; details: 10 μM
Method: as §2, with “Cells were treated with the indicated compounds in a nine-point threefold dilution series (100 μL final volume) and incubated for 72 h.” left out

Structure (SMILES): C#Cc1cccc2cccc(-c3ncc4c(N5C[C@H]6CC[C@@H](C5)N6C(=O)C5CC(=O)O5)nc(OCC56CCCN5CCC6)nc4c3F)c12 (mixture of isomers) [(RS)-1]
% covalent modification of K-Ras G12E (K-Ras G12E): 6.3%
interaction between Raf-RBD and K-Ras(G12D) [1]: disrupted Ras-RafRBD binding
% covalent modification of wild type K-Ras (wild type K-Ras [2]): 0%
% covalent modification of K-Ras G12D (K-Ras G12D): 100%

% covalent modification of wild type K-Ras (wild type K-Ras [3]; 24-h incubation, 100 μM compound, pH 7.5): 7.0%
% covalent modification of K-Ras G12E (K-Ras G12E): 12.0%
Sos-catalyzed nucleotide exchange (K-Ras(G12S) [4]; Sos): blocked Sos-catalyzed exchange
% covalent modification of wild type K-Ras (wild type K-Ras [2]): 7.0%
change of melting temperature of K-Ras(G12S)·GDP on adduct formation (K-Ras(G12S)·GDP): +17.2 °C
melting temperature (Tm) of the K-Ras(G12S)·GDP adduct (K-Ras(G12S)·GDP; unmodified K-Ras(G12S)·GDP 53.7° C.): 70.9 °C
extent of modification of K-Ras(G12S)·GDP (K-Ras(G12S) [5]; 1 hour, 23° C.): 64%
extent of modification of K-Ras(G12S)·GDP (K-Ras(G12S) [5]; 12 h): 100%
% covalent modification of K-Ras G12S (K-Ras(G12S) [5]; 24-h incubation, 100 μM compound, 23° C., pH 7.5): 100%
% covalent modification of K-Ras G12D (K-Ras G12D): 7.0%
Structure (SMILES): CN1CCC[C@H]1COc1nc2c(c(N3CCC4C(=O)OC4C3)n1)CCN(c1cccc3cccc(Cl)c13)C2 (some centres unmarked) [1′]
covalent adducts with wild-type K-Ras protein (wild type K-Ras [3]; 10 μM compound, 4 μM protein): neither of these compounds formed covalent adducts
EDTA promoted nucleotide exchange (K-Ras(G12S) [4]; EDTA): decreased the rate of EDTA promoted exchange
reaction with GppNHp-loaded K-Ras(G12S) (K-Ras(G12S) [5]; GppNHp-loaded protein, identical conditions): no reaction was observed; also recorded: does not react

Structure (SMILES): CC(C)[C@@H]1C(=O)O[C@H]1C(=O)N1[C@@H]2CC[C@H]1CN(c1nc(OCC34CCCN3CCC4)nc3c(F)c(-c4cccc5cccc(Cl)c45)ncc13)C2 [Compound 4]
material remaining intact (hydrolysis) [6]: > 90%
IC50 (BaF3/K-Ras(G12D) cells): 71 nM

Structure (SMILES): C=C(F)C(=O)N1CCN(c2nc(OC[C@@H]3CCCN3C)nc3c2CCN(c2cccc4cccc(Cl)c24)C3)C[C@@H]1CC#N [adagrasib, reference compound]
cell death of parental Ba/F3 cells [7]: complete cell death

Source: US20250059187A1, “COVALENTLY BINDING INHIBITORS OF G12S, G12D AND/OR G12E MUTANTS OF K-RAS GTPASE” (The Regents of the University of California, priority 2021, published 2025)
